SMILES strings stand for the structures.

Data on two molecules can be found in US6838090B2, “Water-insoluble drug delivery system” (priority 1998, dated 2005).

The subject of one data set is HSP90. The conditions noted are these: 40 mg/kg i.v. single dose; 48-hours and 72-hours after administration.
In another data set the test system is p185. Description: p185 expression in xenografts by western blot analysis. The format is in vivo, SCID mice bearing human breast cancer xenografts. Particulars: 40 mg/kg i.v. single dose. (In xenograft studies the graft and the host belong to different species.)
The test system of another data set is HSP70. Nature of the data set: HSP70 level in tumor tissue by western blot analysis. The data set is classed as in vivo, SCID mice bearing human breast cancer xenografts. Particulars: 40 mg/kg i.v. single dose. A general note: A western blot detects proteins with antibodies after separation by electrophoresis.

With `C=CCNC1=C2C[C@@H](C)C[C@H](OC)[C@H](O)[C@@H](C)/C=C(\C)[C@H](OC(N)=O)[C@@H](OC)/C=C\C=C(/C)C(=O)NC(=CC1=O)C2=O` [Example 17-AAG, 17-allylaminogeldanamycin], the “HSP90 concentration in tumor tissue of treated vs untreated mice” value with HSP90 was “elevated”. Also, the “increase of p185 expression in xenografts over untreated mice” value in the data set on p185 (2-hours after administration) was 2 fold. In addition, in the data set with p185 (7-hours, 24-hours and 48-hours after administration), the “p185 expression in xenografts below control levels” value came to 30%. Further, the “concentration in normal tissues” value (single intravenous dose of 40 mg/kg, SCID mice, 7-hours post-administration, HPLC) is reported as “below detection levels”. Moreover, the “HSP70 concentration in tumor tissue of treated vs untreated mice” value is on record as “lower” in the data set with HSP70 (4-hours and 7-hours after administration); “elevated” with HSP70 (48-hours and 72-hours after administration).
Consider `CO[C@H]1C=C/C=C(\C)C(=O)NC2=CC(=O)C(N)=C(C[C@@H](C)C[C@H](OC)[C@H](O)[C@@H](C)/C=C(\C)[C@@H]1OC(N)=O)C2=O` (stereo in doubt) [Example 17-AG], for which, where the note is “mouse, in vivo, iv, 40 mg/kg”, the “concentration in tumor tissue” value was 0.5 to 1 µg/g and the “time remaining detectable in tumor tissue after administration” value is given as “more than 48 hours”.
